Results on 28 compounds are retold here after patent US11702404B2, “GLP-1R modulating compounds” (priority 2019, dated 2023).

One data set deals with GLP-1R (Homo sapiens, UniProt P43220). The data set can be described thus: GLP-1R activation: cAMP increase in CHO cells stably expressing GLP-1R. It counts as cell-based.
A short description of data set [1]: Microsomal stability, human liver microsomes (predicted hepatic clearance). As to conditions: predicted from in vitro microsomal stability data.
Setting [2] is: cAMP increase, CHO cells stably expressing GLP-1R, 10 point dose response, 30 minutes incubation, read-out: EC50.

Where two headings read alike, the source gives them in different places. Where only a bound is given, the exact number is not on record here.

Chain of GLP-1R (P43220 24-463): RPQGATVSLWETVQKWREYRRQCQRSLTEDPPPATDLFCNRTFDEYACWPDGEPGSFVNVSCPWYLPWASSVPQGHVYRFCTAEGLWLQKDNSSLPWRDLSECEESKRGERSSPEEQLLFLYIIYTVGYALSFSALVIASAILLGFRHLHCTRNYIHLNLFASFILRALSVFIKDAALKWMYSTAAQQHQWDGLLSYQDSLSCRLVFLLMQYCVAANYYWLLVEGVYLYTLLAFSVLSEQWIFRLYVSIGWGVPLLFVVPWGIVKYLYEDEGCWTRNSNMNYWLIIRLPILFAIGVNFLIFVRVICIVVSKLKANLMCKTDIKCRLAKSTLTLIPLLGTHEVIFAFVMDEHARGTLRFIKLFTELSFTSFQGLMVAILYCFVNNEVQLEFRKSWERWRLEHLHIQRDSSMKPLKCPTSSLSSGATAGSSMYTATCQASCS

Broadly, the EC50 is the midpoint of the concentration-response curve. On to `COCCn1c(Cc2ccc(-c3cccc(OCc4ccc(C#N)c(F)c4OC)n3)cc2F)nc2ccc(C(=O)O)cc21` [Example 363, 2-(4-(6-((4-cyano-3-fluoro-2-methoxybenzyl)oxy)pyridin-2-yl)-2-fluorobenzyl)-1-(2-methoxyethyl)-1H-benzo[d]imidazole-6-carboxylic acid], for which the EC50 at GLP-1R (setting [2]) worked out at 8.96 nM. The “Predicted Hepatic Clearance (Pred. Cl.)” value in data set [1] was 7.75 mL/min/kg.

As for `COCCn1c(Cc2cc(F)c(-c3cccc(OCc4cccc(-c5cnn(C)c5)c4)n3)cc2F)nc2ccc(C(=O)O)cc21` [Example 913], the EC50 at GLP-1R (setting [2]) was 112 nM. Besides, the “Predicted Hepatic Clearance (Pred. Cl.)” value in data set [1] is 3.83 mL/min/kg.

Regarding `CC1(Cn2c(Cc3cc(F)c(-c4cccc(OCc5ccc(C#N)cc5F)n4)cc3F)nc3ccc(C(=O)O)cc32)CCOCC1` [Example 839], on GLP-1R (setting [2]), the EC50 is 7.04 nM. For the same compound, the “Predicted Hepatic Clearance (Pred. Cl.)” value in data set [1] was 5.83 mL/min/kg.

Consider `CC1(Cn2c(Cc3ccc(-c4cccc(OCc5ccc(C#N)cc5F)n4)cc3F)nc3ccc(C(=O)NS(=O)(=O)C4CC4)cc32)CC1` [Example 50, 2-(4-(6-((4-Cyano-2-fluorobenzyl)oxy)pyridin-2-yl)-2-fluorobenzyl)-N-(cyclopropylsulfonyl)-1-((1-methylcyclopropyl)methyl)-1H-benzo[d]imidazole-6-carboxamide], for which the EC50 on GLP-1R (setting [2]) amounted to 19 nM. For the same compound, the “Predicted Hepatic Clearance (Pred. Cl.)” value in data set [1] is below 1.83 mL/min/kg.

On to `COCCNC(=O)C(Cn1c(Cc2ccc(-c3cccc(OCc4ccc(C#N)cc4F)n3)cc2F)nc2ccc(C(=O)O)cc21)OC` (single isomer, unassigned) [Example 335, 2-(4-(6-((4-cyano-2-fluorobenzyl)oxy)pyridin-2-yl)-2-fluorobenzyl)-1-(2-methoxy-3-((2-methoxyethyl)amino)-3-oxopropyl)-1H-benzo[d]imidazole-6-carboxylic acid], for which the EC50 at GLP-1R (setting [2]) was 139 nM. Moreover, in data set [1], the “Predicted Hepatic Clearance (Pred. Cl.)” value is 4.83 mL/min/kg.

`COCCn1c(Cc2ccc(-c3cc(C#N)cc(OCc4ccc(C#N)cc4F)c3)cc2F)nc2ccc(C(=O)O)cc21` [Example 29, 2-((3′-cyano-5′-((4-cyano-2-fluorobenzyl)oxy)-3-fluoro-[1,1′-biphenyl]-4-yl)methyl)-1-(2-methoxyethyl)-1H-benzo[d]imidazole-6-carboxylic acid]: the EC50 on GLP-1R (setting [2]) stood at 57 nM. Besides, the “Predicted Hepatic Clearance (Pred. Cl.)” value in data set [1] is 5.17 mL/min/kg.

For `COCCn1c(Cc2ccc(-c3cccc(OCc4ccc(C#N)cc4F)n3)cc2F)nc2ccc(C(O)CO)cc21` (racemic) [Example 582], the half-maximal effective concentration (EC50) on GLP-1R (setting [2]) was determined as 3460 nM. Besides, the “Predicted Hepatic Clearance (Pred. Cl.)” value in data set [1] is 15.2 mL/min/kg.

As for `COCCn1c(Cc2ccc(-c3cccc(OCc4ccc(C#N)cc4F)n3)cc2F)nc2ccc(C(=O)O)cc21` [Example 2, 2-(4-(6-((4-cyano-2-fluorobenzyl)oxy)pyridin-2-yl)-2-fluorobenzyl)-1-(2-methoxyethyl)-1H-benzo[d]imidazole-6-carboxylic acid], the EC50 at GLP-1R (setting [2]) came to 2.3 nM. In data set [1], the “Predicted Hepatic Clearance (Pred. Cl.)” value was 2.33 mL/min/kg.

On to `N#Cc1ccc(COc2cccc(-c3ccc(Cc4nc5ccc(C(=O)O)cc5n4Cc4ncco4)nc3)n2)c(F)c1` [Example 601, 2-((6-((4-cyano-2-fluorobenzyl)oxy)-[2,3′-bipyridin]-6′-yl)methyl)-1-(oxazol-2-ylmethyl)-1H-benzo[d]imidazole-6-carboxylic acid], for which, at GLP-1R (setting [2]), the EC50 is 31.7 nM. The “Predicted Hepatic Clearance (Pred. Cl.)” value in data set [1] is 3.83 mL/min/kg.

For the compound `COCCn1c(Cc2cc(F)c(-c3cccc(OCc4ccc(-c5ncccn5)cc4F)n3)cc2F)nc2ccc(C(=O)O)cc21` [Example 911, 2-[[2,5-difluoro-4-[6-[(2-fluoro-4-pyrimidin-2-yl-phenyl)methoxy]-2-pyridyl]phenyl]methyl]-3-(2-methoxyethyl)benzimidazole-5-carboxylic acid], the EC50 at GLP-1R (setting [2]) was determined as 55.6 nM. Further, the “Predicted Hepatic Clearance (Pred. Cl.)” value in data set [1] was 1.83 mL/min/kg.

`CO[C@@H]1CN(C(C)=O)C[C@H]1n1c(Cc2cc(F)c(-c3cccc(OCc4ccc(C#N)cc4F)n3)cc2F)nc2ccc(C(=O)O)cc21` [Example 920]: at GLP-1R (read-out: EC50), the EC50 came out at 58.5 nM. For the same compound, the “Predicted Hepatic Clearance (Pred. Cl.)” value in data set [1] was 4.67 mL/min/kg.

For `O=C(O)c1ccc2nc(Cc3ccc(-c4cccc(OCc5ccc(Cl)nc5)n4)c(F)c3)n(C[C@@H]3CCO3)c2c1` [Example 806], the EC50 on GLP-1R (setting [2]) stood at 0.54 nM. In addition, in data set [1], the “Predicted Hepatic Clearance (Pred. Cl.)” value is 7.17 mL/min/kg.

Turning to `N#Cc1ccc(COc2cccc(-c3cc(F)c(Cc4nc5ccc(C(=O)O)cc5n4C[C@H]4COCCO4)cc3F)n2)c(F)c1` [Example 641], on GLP-1R (setting [2]), the EC50 came to 65.9 nM. Also, in data set [1], the “Predicted Hepatic Clearance (Pred. Cl.)” value is 2.83 mL/min/kg.

With `N#Cc1ccc(COc2cccc(-c3cc(F)c(Cc4nc5ccc(C(=O)O)cc5n4CC4(C(F)F)COC4)cc3F)n2)c(F)c1` [Example 308, 2-(4-(6-((4-cyano-2-fluorobenzyl)oxy)pyridin-2-yl)-2,5-difluorobenzyl)-1-((3-(difluoromethyl)oxetan-3-yl)methyl)-1H-benzo[d]imidazole-6-carboxylic acid], on GLP-1R (setting [2]), the EC50 is 1.26 nM. Also, in data set [1], the “Predicted Hepatic Clearance (Pred. Cl.)” value is 5.83 mL/min/kg.

In the case of `N#Cc1ccc(COc2cccc(-c3cc(CO)c(Cc4nc5ccc(C(=O)O)cc5n4C[C@@H]4CCO4)cc3F)n2)c(F)c1` [Example 775], at GLP-1R (setting [2]), the EC50 is 0.1 nM. In data set [1], the “Predicted Hepatic Clearance (Pred. Cl.)” value was 3.17 mL/min/kg.

In the case of `N#Cc1ccc(COc2cccc(-c3cc(F)c(Cc4nc5ccc(C(=O)O)cc5n4C4COCC4(F)F)cc3F)n2)c(F)c1` (centres unmarked) [Example 612], at GLP-1R (setting [2]), the EC50 is 0.22 nM. Besides, the “Predicted Hepatic Clearance (Pred. Cl.)” value in data set [1] was 3.83 mL/min/kg.

As to `COCCn1c(Cn2cc(F)c(-c3cccc(OCc4ccc(C#N)cc4F)n3)cc2=O)nc2ccc(C(=O)O)cc21` [Example 434], the EC50 at GLP-1R (setting [2]) came out at 2.86 nM. In addition, the “Predicted Hepatic Clearance (Pred. Cl.)” value in data set [1] was 3.17 mL/min/kg.

Take `CC(C)(C#N)Cn1c(Cc2ccc(-c3cccc(OCc4ccc(C#N)cc4F)n3)c(F)c2)nc2ccc(C(=O)O)cc21` [Example 279, 2-(4-(6-((4-cyano-2-fluorobenzyl)oxy)pyridin-2-yl)-3-fluorobenzyl)-1-(2-cyano-2-methylpropyl)-1H-benzo[d]imidazole-6-carboxylic acid]: the EC50 on GLP-1R (setting [2]) came out at 3.07 nM. The “Predicted Hepatic Clearance (Pred. Cl.)” value in data set [1] is 8.3 mL/min/kg.

As to `COCCn1c(Cc2ccc(-c3cccc(OCc4ccc(C#N)cc4F)n3)cc2COC)nc2ccc(C(=O)O)cc21` [Example 411, 2-(4-(6-((4-cyano-2-fluorobenzyl)oxy)pyridin-2-yl)-2-(methoxymethyl)benzyl)-1-(2-methoxyethyl)-1H-benzo[d]imidazole-6-carboxylic acid], it took 140 nM to reach a half-maximal effect on GLP-1R (EC50 (nM)) (EC50). Also, the “Predicted Hepatic Clearance (Pred. Cl.)” value in data set [1] was 9.33 mL/min/kg.

On to `COCCn1c(Cc2cc(F)c(-c3cccc(OCc4ccc(F)cc4C)n3)cc2F)nc2ccc(C(=O)O)cc21` [Example 816], for which the EC50 on GLP-1R (setting [2]) came out at 1 nM. The “Predicted Hepatic Clearance (Pred. Cl.)” value in data set [1] is 9.5 mL/min/kg.

In the case of `N#Cc1ccc(COc2cccc(-c3ccc(Cc4nc5ccc(C(=O)O)cc5n4CCOC(F)(F)F)c(F)c3)n2)c(F)c1` [Example 323, 2-(4-(6-((4-cyano-2-fluorobenzyl)oxy)pyridin-2-yl)-2-fluorobenzyl)-1-(2-(trifluoromethoxy)ethyl)-1H-benzo[d]imidazole-6-carboxylic acid], at GLP-1R (setting [2]), the EC50 amounted to 27.5 nM. Also, the “Predicted Hepatic Clearance (Pred. Cl.)” value in data set [1] is 4.33 mL/min/kg.

`CC(=O)N1CC[C@@H]1Cn1c(Cc2cc(F)c(-c3cccc(OCc4ccc(C#N)cc4F)n3)cc2F)nc2ccc(C(=O)O)cc21` (single isomer, unassigned) [Example 689]: at GLP-1R (read-out: EC50), the 50% effective concentration (EC50) was found to be 0.56 nM. In addition, in data set [1], the “Predicted Hepatic Clearance (Pred. Cl.)” value was 5.17 mL/min/kg.

Turning to `COCCn1c(C2OCCc3cc(-c4cccc(OCc5ccc(C#N)cc5F)n4)ccc32)nc2ccc(C(=O)O)cc21` (single isomer, unassigned) [Example 49, 2-(6-(6-((4-cyano-2-fluorobenzyl)oxy)pyridin-2-yl)isochroman-1-yl)-1-(2-methoxyethyl)-1H-benzo[d]imidazole-6-carboxylic acid], the EC50 at GLP-1R (setting [2]) was above 1000 nM. In data set [1], the “Predicted Hepatic Clearance (Pred. Cl.)” value was 13 mL/min/kg.

Consider `COCCn1c(Cc2ccc(-c3nc(OCc4ccc(C#N)cc4F)ncc3F)cc2F)nc2ccc(C(=O)O)cc21` [Example 358, 2-(4-(2-((4-cyano-2-fluorobenzyl)oxy)-5-fluoropyrimidin-4-yl)-2-fluorobenzyl)-1-(2-methoxyethyl)-1H-benzo[d]imidazole-6-carboxylic], for which the EC50 at GLP-1R (setting [2]) amounted to 33.1 nM. In addition, the “Predicted Hepatic Clearance (Pred. Cl.)” value in data set [1] is 6.5 mL/min/kg.

Consider `N#Cc1ccc(COc2cccc(-c3ccc(Cc4nc5ccc(C(=O)O)cc5n4C[C@H]4CCCO4)c(F)c3)n2)c(F)c1` [Example 198, (R)-2-(4-(6-((4-cyano-2-fluorobenzyl)oxy)pyridin-2-yl)-2-fluorobenzyl)-1-((tetrahydrofuran-2-yl)methyl)-1H-benzo[d]imidazole-carboxylic acid], for which the EC50 on GLP-1R (setting [2]) came out at 8.69 nM. The “Predicted Hepatic Clearance (Pred. Cl.)” value in data set [1] was 5.17 mL/min/kg.

For the compound `COCCn1c(Cc2ccc(-c3cccc(NCc4ccc(C#N)cc4OC)n3)cc2F)nc2ccc(C(=O)O)cc21` [Example 195], the EC50 at GLP-1R (setting [2]) came to 15.8 nM. Besides, the “Predicted Hepatic Clearance (Pred. Cl.)” value in data set [1] is 9.5 mL/min/kg.

With `COCCn1c(Cc2ccc(-c3nsc(OCc4ccc(C#N)cc4F)n3)cc2F)nc2ccc(C(=O)O)cc21` [Example 63, 2-{[4-[5-[(4-cyano-2-fluoro-phenyl)methoxy]-1,2,4-thiadiazol-3-yl]-2-fluoro-phenyl]methyl}-3-(2-methoxyethyl)benzimidazole-5-carboxylic acid], at GLP-1R (setting [2]), the EC50 was found to be 164 nM. The “Predicted Hepatic Clearance (Pred. Cl.)” value in data set [1] is below 1.83 mL/min/kg.

Consider `O=C(O)c1ccc2nc(Cc3ccc(-c4cccc(OCc5ccc(Cl)cc5F)n4)c(F)c3)n(CC3(CF)CC3)c2n1` [Example 321, 2-(4-(6-((4-chloro-2-fluorobenzyl)oxy)pyridin-2-yl)-3-fluorobenzyl)-3-((1-(fluoromethyl)cyclopropyl)methyl)-3H-imidazo[4,5-b]pyridine-5-carboxylic acid], for which the EC50 at GLP-1R (setting [2]) is 0.27 nM. Moreover, the “Predicted Hepatic Clearance (Pred. Cl.)” value in data set [1] is 6.33 mL/min/kg.
